Data as given in patent publication US20230048678A1, “ICAN DERIVATIVES FOR ANTIFUNGAL USE” (DEBRECENI EGYETEM, priority 2019, published 2023).
“Also recorded” adds a separate entry of the source.

How the values were obtained:
[1] = test system: human cell cultures; settings: from [Nagy M 2018, Nagy Z L; cited from earlier work
[2] = test system: C. albicans isolate 3666; test: Murine model of acute invasive candidiasis, survival; type: in vivo, BALB/c mice; settings: neutropenic mice, 3×10^4 cfu/mouse iv, 5 mg/kg ip once daily for 5 days, olive oil/water emulsion; untreated controls 0%, P<0.05
Experimental: In the model of acute invasive candidiasis, neutropenic mice were infected via the lateral tail vein with C. albicans isolate 3666 (3×10^4 cfu/mouse) to establish an acute infection. It is well understood that any other fungal pathogens of animals can be used for this purpose. In the example provided herein all untreated control animals died within 6 days. DIMICAN (5 mg/kg) prolonged the survival period of animals compared to non-treated infected controls (P<0.05; 80 versus 0% survivors at day 7 post-infection; FIG. 3a). It should be noted, however, that DIMICAN was administered as intraperitoneal injection which contained DIMICAN as an emulsion in reagent grade olive oil and water. While emulsions are a kind of preferred options in the preparations of the invention, preparing alternative or improved formulations are within the skills of a person skilled in the art.
We used 10-12 week-old female BALB/c mice for all experiments. […] Mice were given food and water ad libitum and were monitored daily. […]
(§1) Survival effects were analyzed by the Kaplan—Meier log-rank test. Kidney burden was analysed using a Kruskal—Wallis test with Dunn's posttest for multiple comparisons [Foldi R 2012, Kovacs R 2014].

[3] = test system: C. albicans isolate 3666; test: Murine model, kidney fungal burden; type: in vivo, BALB/c mice; settings: immunosuppressed mice, 10^4 cfu/mouse iv
Experimental: During an independent in vivo experiment mice were infected intravenously with C. albicans isolate 3666. The infected mice were euthanized 2 or 6 days after infection (n=5 and 6 mice/time point, respectively), as disclosed herein, to determine the fungal burdens in the kidneys. Kidney burden was analyzed using a Kruskal-Wallis test with Dunn's posttest for multiple comparisons [Foldi R 2012, Kovacs R 2014]. Results of fungal burden experiments are shown on FIGS. 3b and c. […] It is well seen in […], that on day 6. the fungal burden increased by an order of magnitude (from −10^5 to −10^6) in the case of the untreated mice, while in the case of DIMICAN it remained the same as it was on day 2. The same is valid for AMB.
We used 10-12 week-old female BALB/c mice for all experiments. Mice were immunosuppressed using 150 mg/kg intraperitoneal (ip) cyclophosphamide dose (4 days prior to infection) and 100 mg/kg ip cyclophosphamide dose (1 day prior to infection; 2 and 5 days after infection) [Spellberg B, 2005]. All mice received ceftazidime (5 mg/day subcutaneously) from days 0 to 6 after infection. Mice were given food and water ad libitum and were monitored daily. The animals were maintained in accordance with the Guidelines for the Care and Use of Laboratory Animals, and the experiments were approved by the Animal Care Committee of the University of Debrecen, Debrecen, Hungary (permission no. 12/2014).
Mice were infected via the lateral tail vein with C. albicans 3666 bloodstream isolate. In the lethality (10 mice/group) and fungal tissue burden experiments (6 mice/group) the infectious doses were 3×10^4 and 10^4 cfu/mouse, respectively. These doses led to 100% and 0% mortality, respectively by day 6 after infection among untreated mice. Inoculum density was confirmed by plating serial dilutions onto Sabouraud dextrose agar (SDA) plates.
AMB (Fungizone, commercial preparation) and DIMICAN treatment in a 0.5-ml bolus was started 1 h after infection. The doses were 1 mg AMB and 5 mg DIMICAN (in olive oil/water (o/w) emulsion) per kg body weight. All antifungals were administered intraperitoneally once daily for 5 consecutive days.
Infected mice were euthanized 2 or 6 days after infection (n=6 mice/time point) to determine the fungal burden in the kidney. […] Aliquots of 0.1 ml of the undiluted and diluted homogenates were plated onto SDA, and the colony count was determined after 48 h. Colony-forming units (CFUs) were determined after 48 h of incubation at 37° C. and results were expressed as cfus/g tissue [Spellberg B, 2005]. […]
as §1

[4] = test system: C. krusei ATCC 6258; test: CLSI broth microdilution susceptibility (Table 1); type: cell-based; settings: 48 h, 35° C.
Experimental: (§2) ICAN has 3 key moieties, namely the amino, naphthalene and isonitrile. To find out which ones of them are essential for the antifungal behavior and to design more efficient derivatives, comparative studies were carried out, where one of the moieties was exchanged or eliminated. All ICAN derivatives were tested against C. albicans SC5314, C. krusei ATCC 6258 and C. parapsilosis ATCC 22019. The antifungal agents were dissolved in 100% DMSO and diluted further in RPMI-1640 (with L-glutamine but without bicarbonate) and buffered to pH 7.0 with 0.165 M morpholinopropanesulfonic acid (MOPS). MICs were read visually after 48-h incubation at 35° C. using the partial (50%) inhibition (for ICAN derivatives) (PI) and total inhibition (for AMB and ICAN derivatives) (TI) criteria. MICs were determined at least twice.
(§3) The tested C. albicans, C. tropicalis, C. parapsilosis, C. glabrata and C. krusei ATCC strains and clinical isolates are listed in Table 2. MICs were determined according to the CLSI M27-A3 [22]. Antifungal agents were dissolved in 100% DMSO and diluted further in RPMI-1640 (with L-glutamine but without bicarbonate) (Sigma, Budapest, Hungary), and buffered to pH 7.0 with 0.165 M morpholinopropanesulfonic acid (MOPS; Sigma, Budapest, Hungary). The final concentration ranges used for AMB and ICAN derivatives were 0.125 to 4 μg/ml and 0.04 to 20 μg/ml, respectively. Yeast cell suspensions were prepared in RPMI 1640 medium and were adjusted to give a final inoculum concentration of 0.5×10^3 to 2.5×10^3 cells/ml. MICs were read visually after 48-h incubation at 35° C. using the partial (50%) inhibition (for ICAN derivatives) (PI) and total inhibition (for AMB and ICAN derivatives) (TI) criteria. MICs were determined at least twice. For amphotericin B isolates with MIC values of ≤2 mg/L were considered wild-types. [Pfaller M A, 2012]

[5] = test system: C. albicans SC5314; test: CLSI broth microdilution susceptibility (Table 1); type: cell-based; settings: 48 h, 35° C.
Experimental: as §2, §3

[6] = test system: C. parapsilosis ATCC 22019; test: CLSI broth microdilution susceptibility (Table 1); type: cell-based; settings: 48 h, 35° C.
Experimental: as §2, §3

[7] = test system: human cell cultures; test: MTT bio assay cytotoxicity; type: cell-based; settings: MTT bio assay technique

## [C-]#[N+]c1cccc2c(N(C)C)cccc12 [DIMICAN, N,N-dimethyl-1-amino-5-isocyanonaphthalene]
[1]
  cytotoxic effect: no cytotoxic effect
[2]
  survivors at day 7 post infection: 80%
[3]; 5 mg/kg DIMICAN or 1 mg/kg AMB ip once daily for 5 days, p<0.05 (AMB), p<0.001 (DIMICAN) vs control
  effect on kidney fungal burden, six days after infection: efficient; also recorded: significantly lower fungal burden
[3]; 5 mg/kg DIMICAN or 1 mg/kg AMB ip once daily, P>0.05 vs control
  effect on kidney fungal burden, two days after infection: no effect on fungal load
[4]; partial (50%) inhibition
  MICPI: 0.15 µg/mL
[4]; total inhibition
  MICTI: 0.3 µg/mL
[5]; partial (50%) inhibition
  MICPI: ≤0.04 µg/mL
[5]; total inhibition
  MICTI: 0.6 µg/mL
[6]; partial (50%) inhibition
  MICPI: 0.15 µg/mL
[6]; total inhibition
  MICTI: 0.6 µg/mL
[7]
  LD50: 13 µg/mL
